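Values below derive from 48-hour exposures of cells grown in 96-well plates, with endpoints linearly interpolated between the two concentrations bracketing the appropriate inhibition level. GI50: concentration for 50% inhibition of growth. TGI: concentration producing complete growth inhibition.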
What was measured:
Experiment in all cases: NCI anticancer screen, dose series, 48 h
LOX IMVI melanoma = system: LOX IMVI melanoma
HS 578T breast = system: HS 578T breast
HT29 colon = system: HT29 colon
RPMI-8226 leukemia = system: RPMI-8226 leukemia
UO-31 renal = system: UO-31 renal
MDA-MB-435 = system: MDA-MB-435
KM12 colon = system: KM12 colon
NCI-H522 lung = system: NCI-H522 lung
NCI-H226 lung = system: NCI-H226 lung
HCC-2998 colon = system: HCC-2998 colon
MOLT-4 leukemia = system: MOLT-4 leukemia
SF-268 CNS = system: SF-268 CNS
SK-MEL-28 melanoma = system: SK-MEL-28 melanoma
RXF 393 renal = system: RXF 393 renal

| Compound | TGI (LOX IMVI melanoma) [µM] | TGI (HS 578T breast) [µM] | TGI (HT29 colon) [µM] | TGI (RPMI-8226 leukemia) [µM] | TGI (UO-31 renal) [µM] | TGI (MDA-MB-435) [µM] | TGI (KM12 colon) [µM] | TGI (NCI-H522 lung) [µM] | TGI (NCI-H226 lung) [µM] | TGI (HCC-2998 colon) [µM] | TGI (MOLT-4 leukemia) [µM] | TGI (SF-268 CNS) [µM] | TGI (SK-MEL-28 melanoma) [µM] | TGI (RXF 393 renal) [µM] | GI50 (HS 578T breast) [µM] | GI50 (HT29 colon) [µM] | GI50 (RPMI-8226 leukemia) [µM] | GI50 (UO-31 renal) [µM] | GI50 (NCI-H522 lung) [µM] | GI50 (SK-MEL-28 melanoma) [µM] |
| --- | --- | --- | --- | --- | --- | --- | --- | --- | --- | --- | --- | --- | --- | --- | --- | --- | --- | --- | --- | --- |
| Nc1nc(Cl)c2ncn(Cc3ccccc3CCl)c2n1 | 21.9 | 77.6 | 18.9 | > 100 | 45 | 27 | 39 | 9.41 | 9.95 | 6.57 | > 100 | 14.5 | 20.7 | – | – | – | – | – | – | – |
| Cc1c2n(c3ccccc13)CC1C2N(C)OC1(C)C (centres undefined) | – | – | > 100 | > 100 | > 100 | – | > 100 | > 100 | > 100 | > 100 | > 100 | > 100 | > 100 | – | – | – | – | – | – | – |
| Cc1c(-c2ccccc2)n(C)c2cn[nH]c(=O)c12 | 38.3 | > 100 | 81.3 | > 100 | > 100 | > 100 | > 100 | > 100 | – | 85.8 | > 100 | > 100 | > 100 | – | – | – | – | – | – | – |
| CCNC1CC(C(C)(C)NCC)CC=C1C (centres undefined) | > 100 | – | > 100 | – | > 100 | > 100 | > 100 | > 100 | – | > 100 | > 100 | > 100 | > 100 | – | – | – | – | – | – | – |
| CCCCCCCCCCCCCCCCCCNc1ccn(C2OC(CO)C(OP(=O)(O)OCC3CCC(n4ccc(N)nc4=O)O3)C2O)c(=O)n1 (centres undefined) | > 100 | > 100 | > 100 | – | 56.7 | > 100 | > 100 | > 100 | > 100 | – | 10.2 | > 100 | > 100 | 45.1 | – | – | – | – | – | – |
| CC(C)(C)C1CCC2c3c([nH]c4ccccc34)C3C(=O)N(c4ccc(Br)cc4)C(=O)C3C2C1 (centres undefined) | 29.2 | – | 44.3 | 38.6 | 27.2 | – | 53.8 | – | 36.1 | 11.9 | 26.2 | 49.8 | > 100 | – | – | – | – | – | – | – |
| CCC12C=CCN3CC[C@]4(C(=C(C(=O)OC)[C@@H]1Nc1ccn(C5OC(COC(C)=O)C(OC(C)=O)C5OC(C)=O)c(=O)n1)Nc1ccccc14)C32 (some centres undefined) | 7.81 | – | 8.4 | 14.7 | 7.64 | – | 2.54 | 7.17 | 8.25 | 7.73 | 23.5 | 10.9 | 8.43 | 6.45 | – | – | – | – | – | – |
| Clc1ccc2c(NCCNc3nc(-c4ccccc4)cc(-c4ccccc4)n3)ccnc2c1 | – | 4.56 | 3.31 | 5.1 | 3.01 | – | – | 3.76 | – | – | – | – | 3.23 | – | 1.99 | 1.66 | 2.19 | 1.54 | 1.87 | 1.76 |
| COc1cc(Cn2c3c(c4cc(O)ccc42)C(=O)c2ccccc2C3=O)cc(OC)c1 | > 100 | > 100 | 16.2 | 3.73 | 30.4 | > 100 | 54.8 | 12.5 | – | 37.3 | 90.9 | 15.5 | 28.4 | 35.5 | – | – | – | – | – | – |
| COc1cccc(/C=N/n2c(-c3ccccc3)n[nH]c2=O)c1 | – | 38.8 | > 100 | > 100 | > 100 | > 100 | > 100 | – | > 100 | > 100 | > 100 | 39.8 | > 100 | – | – | – | – | – | – | – |
| Cn1cc(-c2ccc(CCOC3CCCCO3)cc2)c2c(C#N)cccc21 (centres undefined) | > 100 | > 100 | 45.3 | > 100 | > 100 | > 100 | > 100 | > 100 | – | > 100 | > 100 | > 100 | 42.4 | > 100 | – | – | – | – | – | – |
| Cc1[nH]n(-c2ccccc2)c(=S)c1C(=O)c1ccccc1 | > 100 | – | – | 50.2 | > 100 | – | > 100 | > 100 | – | 77.1 | 79.4 | > 100 | > 100 | 10.8 | – | – | – | – | – | – |
| COC(=O)[C@]1(c2cc3ccccc3n2S(=O)(=O)c2ccccc2)CC2CCC1NC2 (some centres undefined) | 36.4 | – | 25.7 | 23.1 | 22.3 | 27.4 | 28.3 | 30.6 | 33.2 | 21.6 | – | 40 | 32 | 25.7 | – | – | – | – | – | – |
| COc1ccc(C2=C(OC(C)=O)c3cccn3-c3ccccc3S2)cc1 | > 10 | – | > 10 | > 10 | – | 0.877 | > 10 | – | – | > 10 | > 10 | > 10 | > 10 | 6.44 | – | – | – | – | – | – |
| Nc1nc(=O)n(C2OC(CO)C(O)C2O)cc1F (centres undefined) | > 38 | – | > 100 | > 100 | > 100 | – | > 100 | > 100 | > 100 | > 100 | 0.268 | > 100 | > 100 | > 100 | – | – | – | – | – | – |
| Cc1ccc2c(c1)NC(=O)C(N=[N+]=[N-])(c1ccccc1)C2=O (centres undefined) | 37.7 | – | 43.9 | – | 90.7 | – | 40 | 45.6 | – | > 100 | 71.5 | > 100 | > 100 | – | – | – | – | – | – | – |
| CC(C)NC(C)Cc1ccccc1 (centres undefined) | > 100 | – | > 100 | > 100 | > 100 | – | > 100 | > 100 | > 100 | > 100 | – | > 100 | > 100 | > 100 | – | – | – | – | – | – |
| CCC(C)(C)NC1=C(NC(C)=O)C(=O)c2ccccc2C1=O | > 75 | – | > 75 | – | > 75 | – | > 75 | 28.7 | > 75 | > 75 | 31.6 | > 75 | > 75 | > 75 | – | – | – | – | – | – |
| CC1=CCC2(C#N)CCC1C2=O (centres undefined) | > 100 | – | > 100 | > 100 | > 100 | – | > 100 | > 100 | > 100 | – | > 100 | > 100 | – | – | – | – | – | – | – | – |
| Cc1ccc(S(=O)(=O)n2ccn3c(=O)cc(C)nc23)cc1 | > 10 | > 10 | > 10 | > 10 | > 10 | > 10 | > 10 | – | > 10 | – | > 10 | > 10 | > 10 | > 10 | – | – | – | – | – | – |
